Data as given in patent publication US20110124703A1, “MOLECULES COMPRISING A BIS(HETEROARYL)MALEIMIDE BACKBONE, AND USE THEREOF IN THE INHIBITION OF DDE/DDD ENZYMES” (priority 2008, published 2011).
Like-named read-outs stand apart in the source and are kept apart here.

Tests used:
[1] = molecular target: T1, MOS1 transposase (MBP-MOS1) (Drosophila mauritiana, UniProt Q7JQ07); assay: In vitro transposition test; format: biochemical; details: 80 μM compound; for Transposition frequencies: mean of at least five experiments; for Inhibition factors: ratio of transposition frequency with DMSO to that with compound
T1 construct: made in house
T1 sequence (Q7JQ07 whole entry): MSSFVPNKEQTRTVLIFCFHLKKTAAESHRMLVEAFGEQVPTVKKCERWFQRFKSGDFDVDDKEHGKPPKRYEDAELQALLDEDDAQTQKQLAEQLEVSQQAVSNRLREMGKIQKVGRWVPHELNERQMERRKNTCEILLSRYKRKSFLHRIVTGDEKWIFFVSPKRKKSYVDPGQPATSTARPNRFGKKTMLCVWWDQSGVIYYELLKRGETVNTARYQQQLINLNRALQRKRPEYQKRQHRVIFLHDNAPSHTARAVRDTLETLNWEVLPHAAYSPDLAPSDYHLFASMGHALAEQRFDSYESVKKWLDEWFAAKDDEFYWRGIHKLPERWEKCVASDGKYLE
Method: The in vitro transposition reactions were carried out using pBC-3T3 both as the donor DNA and as the target, as was carried out previously for transposition tests in bacteria (16). The transposition reaction mixtures contained 10 mM of Tris-HCl (pH 9), 50 mM of NaCl, 0.5 mM of dithiothreitol, 20 mM of MgCl2, 0.5 mM of EDTA, 100 ng of BSA, 80 nM of MBP-MOS1 and 600 ng of supercoiled pBC-3T3 in a volume of 20 μl. Inhibitors (final concentration 80 μM) or DMSO were added to the reaction mixtures before the transposase. The reactions were carried out freely for 30 min at 30° C. then 10 μl of the stop solution (0.4% SDS, 0.4 μg/μl proteinase K) were added and the reaction mixtures were incubated at 37° C. for an additional 30 min, then at 65° C. for 10 min. The products were extracted with phenol-chloroform and precipitated in ethanol with 1 μg of yeast tRNA using conventional techniques. 10% of the reaction mixture was co-transformed with 0.01 ng of pBS-SK(−), used as a positive control for transformation (Stratagene), in 45 μl of electrocompetent Escherichia coli JM109 cells (2 mm cell, 1.5 kV in a MicroPulser™ from BioRad). The bacteria were cultivated at 37° C. for 1 hour in SOC medium. Appropriate dilutions of each reaction were spread on LB-ampicillin gelose (100 μg/ml) to evaluate the transformation efficacy and on LB-tetracyclin gelose (12.5 μg/ml) and LB-chloramphenicol gelose (80 μg/ml) in order to evaluate the frequency of transposition. The frequency of transposition is the number of Tet® colonies divided by the number of Chloram® colonies. The transformation efficacy was monitored from the number of Amp® colonies. The effect of the various compounds was expressed by calculating an inhibition factor (IF) such that IF=the frequency of transposition of the control (in DMSO) divided by the frequency of transposition obtained with the compound.
The transposition test was carried out using a purified MOS1 protein fused with the MBP and the pBC-3T3 plasmid carrying a pseudo-Mos1 transposon. In this test, pBC-3T3 was used as the pseudo-Mos1 donor, or as the target for integration of the transposon (16). […] The concentration of drugs used for the initial screening was 80 μM.

MOS1-ITR complexes = molecular target: T2, MOS1-ITR complexes (Drosophila mauritiana, UniProt Q7JQ07); assay: Electrophoretic mobility shift test (EMSA), assembly of MOS1-ITR complexes; format: binding; set-up: key to Assembly of complexes: +: complexes observed; −: absence of complexes; +/: traces of SEC1; details: for IC50: MOS1-ITR bond
T2 construct: made in house
T2 sequence (Q7JQ07 whole entry, one chain of several): as the sequence (Q7JQ07 whole entry) above
Method: The ITR30 was prepared and labeled as described above (8) with certain minor modifications: after labelling, the DNA was purified further on a native polyacrylamide gel. The binding reactions were carried out in 50 mM of NaCl, 0.5 mM of DTT, 10 mM of Tris (pH 9), 5% of glycerol and 100 ng of BSA. Each 20 μl reaction contained 0.2 pmol of ITR30 labelled with ^32P, […] of purified MBP-MOS1, 5 mM of EDTA, and 1 μl of the test compound (final concentration 400 μM) or DMSO. The mixtures were incubated at 30° C. for two hours. The complexes were separated using discontinuous native polyacrylamide gels with 4% to 6% of TBE 0.25× (acrylamide/bisacrylamide 30:0.93) containing 5% of glycerol. The gels were subjected to 200 V for 3 hours then autoradiographed.
The capacity of the ten molecules to inhibit the appearance of complexes formed in vitro between MOS1 and ITR 3′ (8) was tested using the gel mobility shift technique (EMSA). MOS1-ITR complexes were formed with a radiolabelled ITR 3′ (ITR30) in the presence of a 400 μM concentration of molecule. This concentration was at least 2.5 times higher than the highest IC50 value measured for the ten compounds.

[2] = molecular target: T1, MOS1 transposase (MBP-MOS1); assay: In vitro excision test; format: biochemical
Method: These tests were carried out under the same conditions as for the in vitro transposition tests, with the exception of the fact that the incubation was carried out at 37° C. instead of 30° C. In order to determine the IC50, a range of concentrations of the compound from 1000 to 0.8 μM was used as indicated in the text. After incubation, the reaction was interrupted by adding 2 μl of 10× loading buffer and the products were loaded directly onto a 0.8% TAE 1×-agarose gel containing ethidium bromide. The quantity of backbone liberated was evaluated using the GeneSnap system (SynGene). The percentage inhibition of excision was plotted as a function of the concentration of the compound. The experimental data were adjusted on a sigmoid dose-response curve using Prism software. Each experiment was repeated at least two times.
For a better characterization of the inhibiting activity of these ten compounds and their action mechanisms on the transposition of Mos1, the capacity of the chemical compounds to inhibit excision of the transposon was tested in vitro, using the pBC-3T3 transposon as a donor plasmid. MOS1 triggers excision of the transposon from a donor plasmid, generating two linear DNA fragments, the transposon (1.2 kb) and the plasmid backbone (3.4 kb). After excision, the transposon can be re-inserted in a target. The excision activity of the drug was measured by quantifying the plasmid backbone as it is a final product in the reaction. In the absence of a drug, the transposase released the transposon from the donor plasmid.
In order to determine the concentration of drug necessary to inhibit 50% of the reaction (IC50), the inhibition percentages measured from two independent experiments were plotted as a function of the concentration of drug (FIG. 3b). Similar experiments were carried out with the nine other chemical compounds and the corresponding IC50 values are shown in Table III.

HIV-1 integrase = molecular target: T3, HIV-1 integrase (Human immunodeficiency virus type 1 group M subtype B, UniProt P04585); assay: 3′ maturation and HIV-1 strand transfer tests; format: biochemical
T3 construct: made in house
Method: HIV-1 integrase was purified as described in (32). 200 nM of HIV-1 integrase was incubated in the presence of 6.25 nM of radiolabelled oligonucleotide duplex imitating the end of the LTR U5 in a buffer containing 20 mM of HEPES (pH 7.5), 10 mM of NaCl, 4 mM of DTT, 7.5 mM of MgCl2, 10% of DMSO and various concentrations of drugs. The reaction was carried out for 2 hours at 37° C. and the products were separated on an 18% acrylamide urea gel. The gel was scanned using a phosphorimager and analyzed using Image Quant (Molecular Dynamics) software. Each experiment was carried out in duplicate.
To verify whether the novel group of inhibitors (compounds 1 to 4) is also susceptible of blocking HIV-1 integrase, the activity of compound 4 was tested against the 3′ maturation and strand transfer activities of HIV-1 integrase. The percentage inhibition measured in the two independent experiments were traced as a function of the concentration of compound 4 (FIG. 10). […] It was also an excellent inhibitor of HIV-1 integrase. […] In consequence, MOS1 can be considered as a novel substitute for the identification of inhibitors of HIV-1 integrase.

| SMILES | Transposition frequencies [1] | Inhibition factors [1] | Assembly of complexes (MOS1-ITR complexes; 400 μM compound) | MOS1-ITR complexes in the presence of compound (MOS1-ITR complexes; 400 μM compound) | IC50 (MOS1-ITR complexes) [µM] | inhibition of MOS1-ITR complexes (MOS1-ITR complexes; 400 μM compound) [%] | IC50 [2] [µM] | excision of the transposon ([2]; highest concentration of the drug (1 mM)) | times more active against strand transfer activity than 3′ maturation (HIV-1 integrase) [times] | IC50 (HIV-1 integrase; read-out: IC50 3′ maturation) [µM] | IC50 (HIV-1 integrase; read-out: IC50 strand transfer activity) [µM] |
| --- | --- | --- | --- | --- | --- | --- | --- | --- | --- | --- | --- |
| O=C(O)c1ccc(C2=C(c3ccc(C(=O)O)o3)C(=O)N(c3ccc(O)cc3)C2=O)o1 [Compound 2] | 1.2 × 10^−6 | 33 | − | completely destabilized | 15 |  |  |  |  |  |  |
| O=C(Nc1ccccc1C(=O)O)c1cccc(NC(=O)C(c2ccccc2)c2ccccc2)c1 [Compound 9, reference compound] | 1.64 × 10^−5 | 25 |  |  |  | 90 | 150 | completely suppressed |  |  |  |
| CCOC(=O)C(Cc1ccccc1)N1C(=O)C(c2ccc(C(=O)O)o2)=C(c2ccc(C(=O)O)o2)C1=O (stereo not drawn) [Compound 3] | 4.01 × 10^−6 | 100 | − | completely destabilized | 30 |  |  |  |  |  |  |
| O=C/C=C/c1ccc(C2=C(c3ccc(/C=C/C=O)o3)C(=O)N(Cc3ccccc3)C2=O)o1 [Compound 4] | 5.37 × 10^−6 | 75 | − | completely destabilized | 12 |  |  |  | 10 | 70 | 7 |
| O=C(O)C(Cc1ccccc1)N1C(=O)C(=CC=Cc2ccccc2)SC1=S (stereo not drawn) [Compound 10, reference compound] | 2.76 × 10^−6 | 145 | − | completely destabilized |  |  | 35 |  |  |  |  |
| COc1cccc(OCCOc2cccc(CC3SC(=S)NC3=O)c2)c1 (stereo not drawn) [Compound 8, reference compound] | 5.04 × 10^−6 | 79 | − | completely destabilized |  |  |  |  |  |  |  |
| COc1ccc(C(c2c(O)c3ccccc3oc2=O)c2c(O)c3ccccc3oc2=O)cc1CSc1ccccn1 [Compound 7, reference compound] | 4.85 × 10^−6 | 82.5 | − | completely destabilized |  |  |  |  |  |  |  |
